The numbers were not newly measured in publication PMC9847093 (Protein Science : A Publication of the Protein Society, 2023), which cites them from elsewhere.

For this data set the following is noted: for pKa of monomers used to calculate theoretical number of charges per AOS: M and G monomers; for pKa: ref Draget et al., [1994].

In the case of `O=C(O)[C@@H]1O[C@@H](O)[C@@H](O)[C@@H](O)[C@@H]1O` [G, α‐L‐guluronate], the “pKa of monomers used to calculate theoretical number of charges per AOS” value was 3.65 and the pKa was 3.7.
Take `O=C(O)[C@H]1O[C@@H](O)[C@@H](O)[C@@H](O)[C@@H]1O` [M, β‐D‐mannuronate]: the “pKa of monomers used to calculate theoretical number of charges per AOS” value is 3.38 and the pKa is given as 3.4.
